Test results taken from patent US20130209543A1, “ENHANCED TREATMENT REGIMENS USING MTOR INHIBITORS” (Intellikine LLC, priority 2011, published 2013).
Where two headings read alike, the source gives them in different places.

What was measured:
Format in all cases: biochemical
PI3K δ = PI3K δ (Homo sapiens, UniProt O00329); experiment: PI3K δ kinase assay
PI3K α = PI3K α (Homo sapiens, UniProt P42336); experiment: PI3K α kinase assay
PI3K γ = PI3K γ (Homo sapiens, UniProt P48736); experiment: PI3K γ kinase assay
mTOR = target: T1, mTOR (Homo sapiens, UniProt P42345); experiment: mTOR kinase inhibition assay
T1 construct: purchased Invitrogen
Protocol: The compounds described herein and any other mTorC1/mTorC2 inhibitors known in the art can be tested against recombinant mTOR (Invitrogen) in an assay containing 50 mM HEPES, pH 7.5, 1 mM EGTA, 10 mM MgCl2, 2.5 mM, 0.01% Tween, 10 μM ATP (2.5 μCi of μ-32P-ATP), and 3 mg/mL BSA. Rat recombinant PHAS-1/4EBP1 (Calbiochem; 2 mg/mL) is used as a substrate. Reactions are terminated by spotting onto nitrocellulose, which is washed with 1M NaCl/1% phosphoric acid (approximately 6 times, 5-10 minutes each). Sheets are dried and the transferred radioactivity quantitated by phosphorimaging.
For instance, one can use Invitrogen's LanthaScreen™ Kinase assay to test the inhibitors of mTOR disclosed herein. This assay is a time resolved FRET platform that measures the phosphorylation of GFP labeled 4EBP1 by mTOR kinase. The kinase reaction is performed in a white 384 well microtitre plate. The total reaction volume is 20 μl per well and the reaction buffer composition is 50 mM HEPES pH7.5, 0.01% Polysorbate 20, 1 mM EGTA, 10 mM MnCl2, and 2 mM DTT. In the first step, each well receives 2 ul of test compound in 20% dimethylsulphoxide resulting in a 2% DMSO final concentration. Next, 8ul of mTOR diluted in reaction buffer is added per well for a 60 ng/ml final concentration. To start the reaction, 10 ul of an ATP/GFP-4EBP1 mixture (diluted in reaction buffer) is added per well for a final concentration of 10 μM ATP and 0.5 μM GFP-4EBP1. The plate is sealed and incubated for 1 hour at room temperature. […] The plate is sealed, incubated for 1 hour at room temperature, and then read on a plate reader set up for LanthaScreen™ TR-FRET. Data is analyzed and IC50s are generated using GraphPad Prism 5.

PI3K β = PI3K β (Homo sapiens, UniProt P42338); experiment: PI3K β kinase assay
Chain of PI3K β (P42338 whole entry, species assumed): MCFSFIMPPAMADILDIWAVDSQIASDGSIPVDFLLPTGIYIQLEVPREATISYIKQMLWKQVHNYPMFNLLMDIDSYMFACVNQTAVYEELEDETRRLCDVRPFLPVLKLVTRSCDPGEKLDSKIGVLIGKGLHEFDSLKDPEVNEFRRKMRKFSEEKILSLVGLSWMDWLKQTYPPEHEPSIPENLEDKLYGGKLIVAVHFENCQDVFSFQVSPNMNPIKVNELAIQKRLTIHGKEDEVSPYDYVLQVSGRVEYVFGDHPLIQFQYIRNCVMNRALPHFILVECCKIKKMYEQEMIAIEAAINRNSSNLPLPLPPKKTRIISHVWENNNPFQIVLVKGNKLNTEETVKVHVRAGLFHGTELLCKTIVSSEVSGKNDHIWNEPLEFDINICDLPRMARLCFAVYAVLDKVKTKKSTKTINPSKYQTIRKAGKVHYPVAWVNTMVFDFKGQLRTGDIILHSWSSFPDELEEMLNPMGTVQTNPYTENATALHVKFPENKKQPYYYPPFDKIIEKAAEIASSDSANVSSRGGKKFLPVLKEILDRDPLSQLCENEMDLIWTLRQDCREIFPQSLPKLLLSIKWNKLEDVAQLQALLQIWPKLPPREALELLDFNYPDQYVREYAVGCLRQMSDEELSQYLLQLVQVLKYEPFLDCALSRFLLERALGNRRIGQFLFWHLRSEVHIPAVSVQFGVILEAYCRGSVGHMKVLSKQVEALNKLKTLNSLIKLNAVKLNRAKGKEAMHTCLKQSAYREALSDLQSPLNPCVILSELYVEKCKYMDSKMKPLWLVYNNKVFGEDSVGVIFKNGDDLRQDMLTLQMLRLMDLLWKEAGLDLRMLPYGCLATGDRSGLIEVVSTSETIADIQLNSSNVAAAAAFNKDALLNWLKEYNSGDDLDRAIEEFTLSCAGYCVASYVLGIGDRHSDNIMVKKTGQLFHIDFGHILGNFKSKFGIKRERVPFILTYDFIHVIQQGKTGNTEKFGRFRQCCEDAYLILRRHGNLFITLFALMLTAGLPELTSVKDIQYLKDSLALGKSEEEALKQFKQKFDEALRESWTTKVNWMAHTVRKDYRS
Chain of PI3K β (P27986 whole entry partner, species assumed): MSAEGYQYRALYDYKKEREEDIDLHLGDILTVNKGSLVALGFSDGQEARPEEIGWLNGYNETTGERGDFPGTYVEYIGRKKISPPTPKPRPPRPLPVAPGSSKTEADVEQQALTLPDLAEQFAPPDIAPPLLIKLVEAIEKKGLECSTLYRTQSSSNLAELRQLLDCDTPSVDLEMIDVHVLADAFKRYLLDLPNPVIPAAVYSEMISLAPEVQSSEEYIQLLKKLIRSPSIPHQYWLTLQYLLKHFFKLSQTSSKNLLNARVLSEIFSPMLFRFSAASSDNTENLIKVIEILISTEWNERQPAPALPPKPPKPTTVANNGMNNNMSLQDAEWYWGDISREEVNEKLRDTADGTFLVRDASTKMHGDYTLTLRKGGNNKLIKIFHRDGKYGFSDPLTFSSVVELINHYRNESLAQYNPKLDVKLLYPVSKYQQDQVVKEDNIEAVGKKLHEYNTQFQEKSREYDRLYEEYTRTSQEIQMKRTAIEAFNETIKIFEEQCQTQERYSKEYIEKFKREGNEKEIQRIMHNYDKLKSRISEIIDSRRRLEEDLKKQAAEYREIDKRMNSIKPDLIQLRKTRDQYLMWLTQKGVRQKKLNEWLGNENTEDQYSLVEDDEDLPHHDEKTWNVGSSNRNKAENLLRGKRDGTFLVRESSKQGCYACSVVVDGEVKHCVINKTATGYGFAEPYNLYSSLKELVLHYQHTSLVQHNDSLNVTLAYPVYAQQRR

Chain of PI3K α (P42336 whole entry, species assumed): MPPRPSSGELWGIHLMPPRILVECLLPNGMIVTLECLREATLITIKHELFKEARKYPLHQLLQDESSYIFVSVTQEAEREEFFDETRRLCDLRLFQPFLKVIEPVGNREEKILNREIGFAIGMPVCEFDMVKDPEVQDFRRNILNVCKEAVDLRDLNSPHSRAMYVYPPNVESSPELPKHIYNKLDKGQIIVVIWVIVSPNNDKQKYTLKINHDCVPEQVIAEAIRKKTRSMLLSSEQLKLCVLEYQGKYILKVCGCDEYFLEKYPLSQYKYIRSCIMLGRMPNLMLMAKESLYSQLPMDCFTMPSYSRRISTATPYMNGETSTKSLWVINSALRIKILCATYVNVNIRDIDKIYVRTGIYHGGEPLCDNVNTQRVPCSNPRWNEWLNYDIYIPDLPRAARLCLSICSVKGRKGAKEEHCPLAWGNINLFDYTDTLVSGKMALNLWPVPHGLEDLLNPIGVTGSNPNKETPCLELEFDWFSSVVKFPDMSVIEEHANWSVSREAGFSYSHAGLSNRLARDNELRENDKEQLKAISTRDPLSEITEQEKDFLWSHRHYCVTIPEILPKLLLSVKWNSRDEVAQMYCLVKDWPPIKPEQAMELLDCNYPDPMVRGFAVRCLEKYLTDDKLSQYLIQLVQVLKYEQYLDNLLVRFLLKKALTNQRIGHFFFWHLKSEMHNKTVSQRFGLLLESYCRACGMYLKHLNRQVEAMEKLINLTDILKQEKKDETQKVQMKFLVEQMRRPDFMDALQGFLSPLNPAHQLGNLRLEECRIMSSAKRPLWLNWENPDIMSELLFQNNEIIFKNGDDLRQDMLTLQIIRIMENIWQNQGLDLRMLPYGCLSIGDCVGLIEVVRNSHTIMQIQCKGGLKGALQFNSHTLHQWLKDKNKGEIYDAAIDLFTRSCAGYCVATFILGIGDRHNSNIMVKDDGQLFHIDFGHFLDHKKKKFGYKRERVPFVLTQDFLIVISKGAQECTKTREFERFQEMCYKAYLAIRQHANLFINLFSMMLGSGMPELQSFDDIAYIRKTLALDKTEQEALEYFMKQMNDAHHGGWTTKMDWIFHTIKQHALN
Chain of PI3K α (P27986 whole entry partner, species assumed): as the sequence (P27986 whole entry partner, species assumed) above
Chain of PI3K γ (P48736 whole entry, species assumed): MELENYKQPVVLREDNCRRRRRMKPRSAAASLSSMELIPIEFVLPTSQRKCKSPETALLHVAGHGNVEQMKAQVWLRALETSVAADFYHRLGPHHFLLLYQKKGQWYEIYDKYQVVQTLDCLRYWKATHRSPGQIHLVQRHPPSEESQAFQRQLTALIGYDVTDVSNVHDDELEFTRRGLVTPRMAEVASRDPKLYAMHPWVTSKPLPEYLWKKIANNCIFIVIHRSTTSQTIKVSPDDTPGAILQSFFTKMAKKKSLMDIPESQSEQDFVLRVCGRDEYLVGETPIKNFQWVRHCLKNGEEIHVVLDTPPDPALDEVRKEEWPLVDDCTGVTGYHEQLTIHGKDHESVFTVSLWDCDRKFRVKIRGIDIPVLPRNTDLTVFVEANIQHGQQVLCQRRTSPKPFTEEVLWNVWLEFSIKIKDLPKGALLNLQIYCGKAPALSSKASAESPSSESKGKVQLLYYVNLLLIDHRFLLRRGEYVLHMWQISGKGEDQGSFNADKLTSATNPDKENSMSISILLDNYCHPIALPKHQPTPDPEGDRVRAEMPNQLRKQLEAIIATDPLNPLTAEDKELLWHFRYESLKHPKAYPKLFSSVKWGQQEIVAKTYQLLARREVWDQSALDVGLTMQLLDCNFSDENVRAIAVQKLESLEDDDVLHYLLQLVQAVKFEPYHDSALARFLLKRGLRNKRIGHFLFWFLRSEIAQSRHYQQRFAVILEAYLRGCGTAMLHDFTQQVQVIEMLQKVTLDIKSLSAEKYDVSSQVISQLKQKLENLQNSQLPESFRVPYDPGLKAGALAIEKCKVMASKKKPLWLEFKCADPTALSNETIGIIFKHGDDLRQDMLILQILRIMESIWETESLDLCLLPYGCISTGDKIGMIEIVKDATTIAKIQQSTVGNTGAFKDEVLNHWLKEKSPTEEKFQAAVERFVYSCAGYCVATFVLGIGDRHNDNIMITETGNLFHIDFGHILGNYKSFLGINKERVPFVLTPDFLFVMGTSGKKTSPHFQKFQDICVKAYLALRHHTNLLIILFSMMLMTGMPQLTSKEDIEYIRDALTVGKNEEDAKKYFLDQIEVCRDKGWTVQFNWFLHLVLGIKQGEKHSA
Chain of PI3K δ (O00329 whole entry, species assumed): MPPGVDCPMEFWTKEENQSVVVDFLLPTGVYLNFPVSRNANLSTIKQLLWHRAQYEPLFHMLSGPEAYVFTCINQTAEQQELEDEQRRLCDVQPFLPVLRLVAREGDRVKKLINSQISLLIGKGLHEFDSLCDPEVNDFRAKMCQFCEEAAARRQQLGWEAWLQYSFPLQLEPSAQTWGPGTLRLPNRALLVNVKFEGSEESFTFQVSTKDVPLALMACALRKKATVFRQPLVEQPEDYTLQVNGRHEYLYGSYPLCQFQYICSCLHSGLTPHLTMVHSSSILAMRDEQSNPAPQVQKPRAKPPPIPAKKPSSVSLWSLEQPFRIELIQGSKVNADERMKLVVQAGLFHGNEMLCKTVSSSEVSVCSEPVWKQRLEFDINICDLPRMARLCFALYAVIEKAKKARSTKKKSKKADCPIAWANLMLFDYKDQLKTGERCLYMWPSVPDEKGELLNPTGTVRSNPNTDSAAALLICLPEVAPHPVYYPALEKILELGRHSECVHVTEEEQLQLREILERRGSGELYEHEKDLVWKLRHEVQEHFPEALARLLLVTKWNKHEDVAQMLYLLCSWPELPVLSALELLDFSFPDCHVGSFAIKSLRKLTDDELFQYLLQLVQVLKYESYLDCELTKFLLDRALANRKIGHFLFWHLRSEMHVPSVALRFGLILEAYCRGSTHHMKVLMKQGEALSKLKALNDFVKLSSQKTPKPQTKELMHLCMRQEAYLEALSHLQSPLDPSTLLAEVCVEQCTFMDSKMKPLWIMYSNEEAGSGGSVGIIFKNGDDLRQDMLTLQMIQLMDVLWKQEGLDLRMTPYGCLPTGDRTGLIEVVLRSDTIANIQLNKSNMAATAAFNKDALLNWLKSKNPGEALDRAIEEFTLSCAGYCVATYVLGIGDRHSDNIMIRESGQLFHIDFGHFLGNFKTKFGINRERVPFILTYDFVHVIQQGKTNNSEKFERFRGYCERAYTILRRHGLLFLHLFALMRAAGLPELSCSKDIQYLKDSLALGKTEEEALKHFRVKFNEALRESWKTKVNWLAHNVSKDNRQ
Chain of PI3K δ (P27986 whole entry partner, species assumed): as the sequence (P27986 whole entry partner, species assumed) above

SMILES	IC50 (PI3K δ; Table 2) [µM]	IC50 (PI3K α; Table 2) [µM]	IC50 (PI3K γ; Table 2) [µM]	IC50 (mTOR; Table 2, read-out: mTORC IC50) [µM]	IC50 (PI3K β; Table 2) [µM]	also measured
CC(C)n1nc(-c2cc3c(O)cccc3[nH]2)c2c(N)ncnc21 [Compound 37]	0.1 to 0.5	0.1 to 0.5	0.1 to 0.5	> 0.5	–	–
CC(C)n1nc(-c2cc3cc(O)ccc3[nH]2)c2c(N)nccc21 [Compound 45]	–	–	–	> 0.5	–	–
Nc1ncnc2c1c(-c1cc3cccc(Cl)c3[nH]1)nn2C1CCOCC1 [Compound 51]	0.1 to 0.5	> 0.5	0.1 to 0.5	0.025 to 0.05	> 0.5	–
CC(C)(CO)n1nc(-c2ccc3oc(N)nc3c2)c2c(N)ncnc21 [Compound 27]	–	–	–	–	–	IC50 (PI3K δ; Table 1): < 1 µM; IC50 (PI3K α; Table 1): < 10 µM; IC50 (PI3K β; Table 1): > 10 µM; IC50 (PI3K γ; Table 1): > 10 µM
COc1ccc2[nH]c(-c3nn(C(C)C)c4ncnc(N)c34)cc2c1 [Compound 5]	–	> 0.5	–	> 0.5	–	–
COC(=O)Nc1noc2cc(-c3nn(C(C)C)c4ncnc(N)c34)ccc12 [Compound 20]	–	–	–	–	–	IC50 (PI3K δ; Table 1): < 10 µM; IC50 (PI3K α; Table 1): < 10 µM; IC50 (PI3K β; Table 1): > 10 µM; IC50 (mTOR; Table 1, read-out: mTOR IC50): < 10 µM
CC(C)n1nc(-c2cc3cc(F)ccc3[nH]2)c2c(NC(=O)N(C)C)ncnc21 [Compound 2]	–	–	–	> 0.5	–	–
Nc1ncnc2c1c(-c1cc3ccc(O)cc3[nH]1)nn2C1CCOCC1 [Compound 60]	–	> 0.5	0.05 to 0.1	0.05 to 0.1	> 0.5	–
Nc1ncnc2c1c(-c1cc3cc(O)ccc3[nH]1)nn2C1CCN(C(=O)C2CC2)CC1 [Compound 31]	0.1 to 0.5	> 0.5	–	0.01 to 0.025	> 0.5	–
COC(=O)Nc1noc2ccc(-c3nn(C(C)C)c4ncnc(N)c34)cc12 [Compound 19]	–	–	–	–	–	IC50 (PI3K δ; Table 1): > 10 µM; IC50 (PI3K α; Table 1): > 10 µM; IC50 (PI3K β; Table 1): > 10 µM; IC50 (mTOR; Table 1, read-out: mTOR IC50): < 10 µM
Nc1noc2ccc(-c3nn(CC(=O)N4CCOCC4)c4ncnc(N)c34)cc12 [Compound 17]	–	–	–	–	–	IC50 (PI3K δ; Table 1): > 10 µM; IC50 (PI3K α; Table 1): > 10 µM; IC50 (PI3K γ; Table 1): > 10 µM; IC50 (mTOR; Table 1, read-out: mTOR IC50): > 10 µM
CC(C)n1nc(-c2cc3cc(F)ccc3[nH]2)c2c(N)ncnc21 [Compound 3]	–	> 0.5	–	0.1 to 0.5	–	–
CC(C)N1CCC(n2nc(-c3cc4cc(O)cc(Cl)c4[nH]3)c3c(N)ncnc32)CC1 [Compound 56]	–	> 0.5	> 0.5	> 0.5	> 0.5	–
COc1cc2cc(-c3nn(C(C)C)c4ncnc(N)c34)[nH]c2cc1Cl [Compound 29]	–	–	–	> 0.5	–	–
CC(C)n1nc(-c2cc3cnccc3[nH]2)c2c(N)ncnc21 [Compound 20]	–	> 0.5	–	> 0.5	–	–
Nc1nc2cc(-c3nn(C4CC(=O)C4)c4ncnc(N)c34)ccc2o1 [Compound 25]	–	–	–	–	–	IC50 (PI3K δ; Table 1): < 1 µM; IC50 (PI3K α; Table 1): < 1 µM; IC50 (PI3K β; Table 1): < 10 µM; IC50 (PI3K γ; Table 1): < 0.1 µM
Nc1ncnc2c1c(-c1cc3cc(O)ccc3[nH]1)nn2CC(=O)N1CCOCC1 [Compound 34]	> 0.5	> 0.5	> 0.5	> 0.5	–	–
CC(C)n1nc(-c2cc3ccc(O)cc3[nH]2)c2c(N)ncnc21 [Compound 21]	0.1 to 0.5	0.1 to 0.5	0.1 to 0.5	0.025 to 0.05	> 0.5	–
CC(=O)N1CCC(n2nc(-c3cc4cc(O)cc(Cl)c4[nH]3)c3c(N)ncnc32)CC1 [Compound 70]	0.01 to 0.025	0.1 to 0.5	0.05 to 0.1	< 0.005	> 0.5	–

SMILES	IC50 (PI3K δ; Table 2) [µM]	IC50 (PI3K α; Table 2) [µM]	IC50 (PI3K γ; Table 2) [µM]	IC50 (mTOR; Table 2, read-out: mTORC IC50) [µM]	IC50 (PI3K β; Table 2) [µM]	also measured
Nc1ncnc2c1c(-c1cc3cccc(O)c3[nH]1)nn2C1CCOCC1 [Compound 62]	0.05 to 0.1	> 0.5	> 0.5	< 0.005	> 0.5	–
COc1cc(Cl)c2[nH]c(-c3nn(C4CCOCC4)c4ncnc(N)c34)cc2c1 [Compound 67]	> 0.5	> 0.5	> 0.5	> 0.5	> 0.5	–
Nc1ncnc2c1c(-c1cc3c(Cl)cccc3[nH]1)nn2C1CCOCC1 [Compound 48]	> 0.5	> 0.5	> 0.5	0.025 to 0.05	> 0.5	–
Nc1ncnc2c1c(-c1cc3cc(O)ccc3[nH]1)nn2C1CCC(N2CCOCC2)CC1 (stereo not shown) [Compound 57]	–	> 0.5	> 0.5	0.01 to 0.025	> 0.5	–
Cc1nc(N)c2c(-c3ccc4oc(N)nc4c3)nn(C(C)C)c2n1 [Compound 21]	–	–	–	–	–	IC50 (PI3K δ; Table 1): > 10 µM; IC50 (PI3K α; Table 1): > 10 µM; IC50 (PI3K β; Table 1): > 10 µM; IC50 (PI3K γ; Table 1): > 10 µM; IC50 (mTOR; Table 1, read-out: mTOR IC50): < 1 µM
Nc1nc2cc(-c3nn(C4CC(O)C4)c4ncnc(N)c34)ccc2o1 (stereo not shown) [Compound 26]	–	–	–	–	–	IC50 (PI3K α; Table 1): < 0.1 µM; IC50 (PI3K γ; Table 1): < 0.1 µM
CC(C)n1nc(-c2cc3c(Cl)ccc(O)c3[nH]2)c2c(N)ncnc21 [Compound 39]	> 0.5	> 0.5	> 0.5	0.005 to 0.01	–	–
CC(=O)Nc1nc2ccc(-c3nn(C(C)C)c4ncnc(N)c34)cc2o1 [Compound 3]	–	–	–	–	–	IC50 (PI3K α; Table 1): > 10 µM
CNC(=O)Cn1nc(-c2cc3cc(O)ccc3[nH]2)c2c(N)ncnc21 [Compound 35]	> 0.5	> 0.5	> 0.5	> 0.5	–	–
COCCn1nc(-c2cc3cc(O)ccc3[nH]2)c2c(N)ncnc21 [Compound 40]	> 0.5	> 0.5	> 0.5	0.05 to 0.1	–	–
CC(C)n1nc(-c2cc3ccccc3[nH]2)c2c(N)ncnc21 [Compound 7]	–	> 0.5	–	0.05 to 0.1	–	–
CC(C)n1nc(-c2cc3ccccc3n2C)c2c(N)ncnc21 [Compound 6]	–	> 0.5	–	> 0.5	–	–
CC(C)N1CCC(n2nc(-c3cc4cc(O)ccc4[nH]3)c3c(N)ncnc32)CC1 [Compound 55]	–	> 0.5	> 0.5	0.1 to 0.5	> 0.5	–
CNC(=O)CCn1nc(-c2cc3cc(O)ccc3[nH]2)c2c(N)ncnc21 [Compound 43]	> 0.5	> 0.5	–	> 0.5	> 0.5	–
COc1cc(F)c2[nH]c(-c3nn(C(C)C)c4ncnc(N)c34)cc2c1 [Compound 14]	–	> 0.5	–	> 0.5	–	–
Nc1ncnc2c1c(-c1cc3cc(O)ccc3[nH]1)nn2C1CC(=O)C1 [Compound 53]	–	> 0.5	> 0.5	0.05 to 0.1	> 0.5	–
CN1CCN(C2CCC(n3nc(-c4cc5cc(O)ccc5[nH]4)c4c(N)ncnc43)CC2)CC1 (stereo not shown) [Compound 58]	–	> 0.5	> 0.5	> 0.5	> 0.5	–
CCOC(=O)Cn1nc(-c2cc3cc(O)ccc3[nH]2)c2c(N)ncnc21 [Compound 28]	> 0.5	> 0.5	–	0.1 to 0.5	> 0.5	–
COc1cnc2[nH]c(-c3nn(C(C)C)c4ncnc(N)c34)cc2c1 [Compound 19]	–	> 0.5	–	> 0.5	–	–

SMILES	IC50 (PI3K δ; Table 2) [µM]	IC50 (PI3K α; Table 2) [µM]	IC50 (PI3K γ; Table 2) [µM]	IC50 (mTOR; Table 2, read-out: mTORC IC50) [µM]	IC50 (PI3K β; Table 2) [µM]	also measured
CC(C)n1nc(-c2cc3cc(C(N)=O)ccc3[nH]2)c2c(N)ncnc21 [Compound 23]	–	> 0.5	–	> 0.5	–	–
COc1ccc2cc(-c3nn(C(C)C)c4ncnc(N)c34)[nH]c2c1 [Compound 8]	–	> 0.5	–	> 0.5	–	–
CC(=O)N1CCC(n2nc(-c3cc4cc(O)ccc4[nH]3)c3c(N)ncnc32)CC1 [Compound 30]	> 0.5	> 0.5	–	0.01 to 0.025	> 0.5	–
Nc1ncnc2c1c(-c1cc3cc(O)ccc3[nH]1)nn2CCN1CCOCC1 [Compound 33]	> 0.5	> 0.5	> 0.5	0.1 to 0.5	–	–
CC(C)n1nc(-c2ccc3onc(NC4CC4)c3c2)c2c(N)ncnc21 [Compound 16]	–	–	–	–	–	IC50 (PI3K δ; Table 1): > 10 µM; IC50 (PI3K α; Table 1): > 10 µM; IC50 (mTOR; Table 1, read-out: mTOR IC50): > 10 µM
Cc1nccn1CCn1nc(-c2cc3cc(O)ccc3[nH]2)c2c(N)ncnc21 [Compound 44]	> 0.5	> 0.5	–	0.05 to 0.1	> 0.5	–
COc1ccc2cc(-c3nn(C4CCOCC4)c4ncnc(N)c34)[nH]c2c1 [Compound 59]	–	> 0.5	> 0.5	> 0.5	> 0.5	–
Nc1ncnc2c1c(-c1cc3cc(O)ccc3[nH]1)nn2C1CCOCC1 [Compound 42]	0.05 to 0.1	> 0.5	–	< 0.005	> 0.5	–
CC(C)n1nc(-c2ccc3c(NC4CC4)noc3c2)c2c(N)ncnc21 [Compound 14]	–	–	–	–	–	IC50 (PI3K δ; Table 1): < 10 µM; IC50 (PI3K α; Table 1): < 10 µM; IC50 (mTOR; Table 1, read-out: mTOR IC50): < 10 µM
COc1ccc2[nH]c(-c3nn(C(C)C)c4ncnc(N)c34)cc2n1 [Compound 18]	–	–	–	> 0.5	–	–
CC(C)n1nc(-c2cc3c(Cl)cccc3[nH]2)c2c(N)ncnc21 [Compound 9]	–	> 0.5	–	0.025 to 0.05	–	–
CC(C)n1nc(-c2cc3cc(O)c(Cl)cc3[nH]2)c2c(N)ncnc21 [Compound 32]	> 0.5	> 0.5	> 0.5	0.1 to 0.5	–	–
CC(C)n1nc(-c2cc3cc(C#N)ccc3[nH]2)c2c(N)ncnc21 [Compound 4]	–	> 0.5	–	> 0.5	–	–
Nc1ncnc2c1c(-c1cc3cc(O)ccc3[nH]1)nn2C1CC(O)C1 (stereo not shown) [Compound 54]	–	> 0.5	> 0.5	0.01 to 0.025	> 0.5	–
CNc1noc2cc(-c3nn(C(C)C)c4ncnc(N)c34)ccc12 [Compound 13]	–	–	–	–	–	IC50 (PI3K δ; Table 1): < 1 µM; IC50 (PI3K α; Table 1): < 10 µM; IC50 (PI3K γ; Table 1): < 1 µM; IC50 (mTOR; Table 1, read-out: mTOR IC50): < 10 µM
COc1cc(Cl)c2[nH]c(-c3nn(C(C)C)c4ncnc(N)c34)cc2c1 [Compound 13]	–	> 0.5	–	> 0.5	–	–
Nc1ncnc2c1c(-c1cc3cc(O)ccc3[nH]1)nn2Cc1cccnc1 [Compound 38]	> 0.5	> 0.5	> 0.5	0.1 to 0.5	–	–
COc1cccc2cc(-c3nn(C(C)C)c4ncnc(N)c34)[nH]c12 [Compound 10]	–	–	–	0.01 to 0.025	–	–
CC(C)n1nc(-c2cc3cc(Cl)ccc3[nH]2)c2c(N)ncnc21 [Compound 17]	–	> 0.5	–	> 0.5	–	–
